Measurements taken from US20020111274A1, “1-alkyl-3-[1-(substituted phenyl) benzotriazol-6-yl] uracils” (BASF Aktiengesellschaft, priority 2000, published 2002).

Columns and labels:
SETVI Foxtail, Green [1] = assay: Preemergence herbicidal evaluation, SETVI; assay type: in vivo, Setaria viridis, (L.) Beau; parameters: scale not given here; conditions: preemergence
Summary of the method: (§1)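 Preemergence soil spray: aqueous acetone, ~0.013–0.800 kg/ha, applied right after sowing (seed/potting-soil mix over ~1 in soil). Greenhouse, routine watering. Scored 4–5 wk post-treatment on a rating scale.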

ECHOG Barnyardgrass [2] = assay: Preemergence herbicidal evaluation, ECHOG; assay type: in vivo, Echinochloa crus-galli, (L.) Beau; parameters: scale not given here; conditions: preemergence
Summary of the method: as §1

AMBEL Ragweed, Common [3] = assay: Preemergence herbicidal evaluation, AMBEL; assay type: in vivo, Ambrosia artemisifolia, L.; parameters: scale not given here; conditions: preemergence
Summary of the method: as §1

GLXMAW Soybean, Williams [4] = assay: Preemergence herbicidal evaluation, GLXMAW; assay type: in vivo, Glycine max, (L.) Merr. cv Williams; parameters: scale not given here; conditions: preemergence
Summary of the method: as §1

SETVI Foxtail, Green [5] = assay: Postemergence herbicidal evaluation, SETVI; assay type: in vivo, Setaria viridis, (L.) Beau; parameters: scale not given here; conditions: postemergence spray, rated about two-three weeks after treatment
Summary of the method: (§2)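 Postemergence spray, 40 psi nozzle, on ~2-week seedlings. Carrier: acetone/water 80/20, 1.0% methylated seed oil; dose ~0.006–0.400 kg/ha. Scored visually at 2–3 weeks.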

ABUTH Velvetleaf [6] = assay: Postemergence herbicidal evaluation, ABUTH; assay type: in vivo, Abutilon theophrasti, Medic.; parameters: scale not given here; conditions: postemergence spray, rated about two-three weeks after treatment
Summary of the method: as §2

ZEAMX Corn, Field [7] = assay: Postemergence herbicidal evaluation, ZEAMX; assay type: in vivo, Zea mays, L. (Sammel-Bezeichnung); parameters: scale not given here; conditions: postemergence spray, rated about two-three weeks after treatment
Summary of the method: as §2

[8] = tested on: IPOHE Morningglory, Ivyleaf; assay: Postemergence herbicidal evaluation, IPOHE; assay type: in vivo, Ipomoea hederacea, (L.) Jacq.; parameters: scale not given here; conditions: postemergence spray, rated about two-three weeks after treatment
Summary of the method: as §2

GLXMAW Soybean, Williams [9] = assay: Postemergence herbicidal evaluation, GLXMAW; assay type: in vivo, Glycine max, (L.) Merr. cv Williams; parameters: scale not given here; conditions: postemergence spray, rated about two-three weeks after treatment
Summary of the method: as §2

[10] = tested on: CHEAL Lambsquarters, Common; assay: Preemergence herbicidal evaluation, CHEAL; assay type: in vivo, Chenopodium album, L.; parameters: scale not given here; conditions: preemergence
Summary of the method: as §1

GALAP Galium [11] = assay: Postemergence herbicidal evaluation, GALAP; assay type: in vivo, Galium aparine; parameters: scale not given here; conditions: postemergence spray, rated about two-three weeks after treatment
Summary of the method: as §2

[12] = tested on: IPOHE Morningglory, Ivyleaf; assay: Preemergence herbicidal evaluation, IPOHE; assay type: in vivo, Ipomoea hederacea, (L.) Jacq.; parameters: scale not given here; conditions: preemergence
Summary of the method: as §1

[13] = tested on: TRZAWR Wheat, Winter, cv Riband; assay: Postemergence herbicidal evaluation, TRZAWR; assay type: in vivo, Triticum aestivum; parameters: scale not given here; conditions: postemergence spray, rated about two-three weeks after treatment
Summary of the method: as §2

ORYSAT Rice, Tebonnet [14] = assay: Preemergence herbicidal evaluation, ORYSAT; assay type: in vivo, Oryza sativa, (L.); parameters: scale not given here; conditions: preemergence
Summary of the method: as §1

AMBEL Ragweed, Common [15] = assay: Postemergence herbicidal evaluation, AMBEL; assay type: in vivo, Ambrosia artemisifolia, L.; parameters: scale not given here; conditions: postemergence spray, rated about two-three weeks after treatment
Summary of the method: as §2

[16] = tested on: CHEAL Lambsquarters, Common; assay: Postemergence herbicidal evaluation, CHEAL; assay type: in vivo, Chenopodium album, L.; parameters: scale not given here; conditions: postemergence spray, rated about two-three weeks after treatment
Summary of the method: as §2

ZEAMX Corn, Field [17] = assay: Preemergence herbicidal evaluation, ZEAMX; assay type: in vivo, Zea mays, L. (Sammel-Bezeichnung); parameters: scale not given here; conditions: preemergence
Summary of the method: as §1

GALAP Galium [18] = assay: Preemergence herbicidal evaluation, GALAP; assay type: in vivo, Galium aparine; parameters: scale not given here; conditions: preemergence
Summary of the method: as §1

[19] = tested on: TRZAWR Wheat, Winter, cv Riband; assay: Preemergence herbicidal evaluation, TRZAWR; assay type: in vivo, Triticum aestivum; parameters: scale not given here; conditions: preemergence, rate 0.062 kg/ha
Summary of the method: as §1

CASOB Sicklepod [20] = assay: Postemergence herbicidal evaluation, CASOB; assay type: in vivo, Cassia obtusifolia, L.; parameters: scale not given here; conditions: postemergence spray, rated about two-three weeks after treatment
Summary of the method: as §2

ECHOG Barnyardgrass [21] = assay: Postemergence herbicidal evaluation, ECHOG; assay type: in vivo, Echinochloa crus-galli, (L.) Beau; parameters: scale not given here; conditions: postemergence spray, rated about two-three weeks after treatment
Summary of the method: as §2

ORYSAT Rice, Tebonnet [22] = assay: Postemergence herbicidal evaluation, ORYSAT; assay type: in vivo, Oryza sativa, (L.); parameters: scale not given here; conditions: postemergence spray, rated about two-three weeks after treatment
Summary of the method: as §2

CASOB Sicklepod [23] = assay: Preemergence herbicidal evaluation, CASOB; assay type: in vivo, Cassia obtusifolia, L.; parameters: scale not given here; conditions: preemergence
Summary of the method: as §1

ABUTH Velvetleaf [24] = assay: Preemergence herbicidal evaluation, ABUTH; assay type: in vivo, Abutilon theophrasti, Medic.; parameters: scale not given here; conditions: preemergence
Summary of the method: as §1

melting point: 189 to 192 °C
SMILES: CCc1ccc(-n2nnc3cc(F)c(-n4c(=O)cc(C(F)(F)F)n(C)c4=O)cc32)cc1 [Example 17, 3-[1-(4-ethylphenyl)-5-fluoro-1H-1,2,3-benzotriazol-6-yl]-1-methyl-6-(trifluoromethyl)-2,4(1H,3H)-pyrimidinedione]
SETVI herbicidal rating (SETVI Foxtail, Green [1]; rate 0.016 kg/ha): 6.5
SETVI herbicidal rating (SETVI Foxtail, Green [1]; rate 0.032 kg/ha): 7.3
SETVI herbicidal rating (SETVI Foxtail, Green [1]; rate 0.062 kg/ha): 9.0
SETVI herbicidal rating (SETVI Foxtail, Green [1]; rate 0.125 kg/ha): 9.0
ECHCG herbicidal rating (ECHOG Barnyardgrass [2]; rate 0.016 kg/ha): 0.0
ECHCG herbicidal rating (ECHOG Barnyardgrass [2]; rate 0.032 kg/ha): 1.7
ECHCG herbicidal rating (ECHOG Barnyardgrass [2]; rate 0.062 kg/ha): 6.3
ECHCG herbicidal rating (ECHOG Barnyardgrass [2]; rate 0.125 kg/ha): 8.3
AMBEL herbicidal rating (AMBEL Ragweed, Common [3]; rate 0.016 kg/ha): 0.0
AMBEL herbicidal rating (AMBEL Ragweed, Common [3]; rate 0.032 kg/ha): 3.3
AMBEL herbicidal rating (AMBEL Ragweed, Common [3]; rate 0.062 kg/ha): 6.7
AMBEL herbicidal rating (AMBEL Ragweed, Common [3]; rate 0.125 kg/ha): 8.3
GLXMAW herbicidal rating (GLXMAW Soybean, Williams [4]; rate 0.016 kg/ha): 1.5
GLXMAW herbicidal rating (GLXMAW Soybean, Williams [4]; rate 0.032 kg/ha): 1.7
GLXMAW herbicidal rating (GLXMAW Soybean, Williams [4]; rate 0.062 kg/ha): 3.0
GLXMAW herbicidal rating (GLXMAW Soybean, Williams [4]; rate 0.125 kg/ha): 3.0
Postemergence herbicidal rating SETVI (SETVI Foxtail, Green [5]; 0.008 kg/ha): 1.0
Postemergence herbicidal rating SETVI (SETVI Foxtail, Green [5]; 0.016 kg/ha): 1.0
Postemergence herbicidal rating SETVI (SETVI Foxtail, Green [5]; 0.032 kg/ha): 3.0
Postemergence herbicidal rating SETVI (SETVI Foxtail, Green [5]; 0.062 kg/ha): 8.0
Postemergence herbicidal rating ABUTH (ABUTH Velvetleaf [6]; 0.008 kg/ha): 9.0
Postemergence herbicidal rating ABUTH (ABUTH Velvetleaf [6]; 0.016 kg/ha): 9.0
Postemergence herbicidal rating ABUTH (ABUTH Velvetleaf [6]; 0.032 kg/ha): 9.0
Postemergence herbicidal rating ABUTH (ABUTH Velvetleaf [6]; 0.062 kg/ha): 9.0
Postemergence herbicidal rating ZEAMX (ZEAMX Corn, Field [7]; 0.008 kg/ha): 5.0
Postemergence herbicidal rating ZEAMX (ZEAMX Corn, Field [7]; 0.016 kg/ha): 5.5
Postemergence herbicidal rating ZEAMX (ZEAMX Corn, Field [7]; 0.032 kg/ha): 5.5
Postemergence herbicidal rating ZEAMX (ZEAMX Corn, Field [7]; 0.062 kg/ha): 5.5
Postemergence herbicidal rating IPOHE ([8]; 0.008 kg/ha): 9.0
Postemergence herbicidal rating IPOHE ([8]; 0.016 kg/ha): 9.0
Postemergence herbicidal rating IPOHE ([8]; 0.032 kg/ha): 9.0
Postemergence herbicidal rating IPOHE ([8]; 0.062 kg/ha): 9.0
Postemergence herbicidal rating GLXMAW (GLXMAW Soybean, Williams [9]; 0.008 kg/ha): 5.5
Postemergence herbicidal rating GLXMAW (GLXMAW Soybean, Williams [9]; 0.016 kg/ha): 5.5
Postemergence herbicidal rating GLXMAW (GLXMAW Soybean, Williams [9]; 0.032 kg/ha): 5.5
Postemergence herbicidal rating GLXMAW (GLXMAW Soybean, Williams [9]; 0.062 kg/ha): 7.0
CHEAL herbicidal rating ([10]; rate 0.016 kg/ha): 9.0
CHEAL herbicidal rating ([10]; rate 0.032 kg/ha): 9.0
CHEAL herbicidal rating ([10]; rate 0.062 kg/ha): 9.0
CHEAL herbicidal rating ([10]; rate 0.125 kg/ha): 9.0
Postemergence herbicidal rating GALAP (GALAP Galium [11]; 0.008 kg/ha): 2.0
Postemergence herbicidal rating GALAP (GALAP Galium [11]; 0.016 kg/ha): 4.0
Postemergence herbicidal rating GALAP (GALAP Galium [11]; 0.032 kg/ha): 4.0
Postemergence herbicidal rating GALAP (GALAP Galium [11]; 0.062 kg/ha): 7.0
IPOHE herbicidal rating ([12]; rate 0.016 kg/ha): 0.0
IPOHE herbicidal rating ([12]; rate 0.032 kg/ha): 3.3
IPOHE herbicidal rating ([12]; rate 0.062 kg/ha): 6.0
IPOHE herbicidal rating ([12]; rate 0.125 kg/ha): 9.0
Postemergence herbicidal rating TRZAWR ([13]; 0.008 kg/ha): 3.5
Postemergence herbicidal rating TRZAWR ([13]; 0.016 kg/ha): 3.5
Postemergence herbicidal rating TRZAWR ([13]; 0.032 kg/ha): 4.0
Postemergence herbicidal rating TRZAWR ([13]; 0.062 kg/ha): 5.0
ORYSAT herbicidal rating (ORYSAT Rice, Tebonnet [14]; rate 0.016 kg/ha): 1.0
ORYSAT herbicidal rating (ORYSAT Rice, Tebonnet [14]; rate 0.032 kg/ha): 0.5
ORYSAT herbicidal rating (ORYSAT Rice, Tebonnet [14]; rate 0.062 kg/ha): 4.0
ORYSAT herbicidal rating (ORYSAT Rice, Tebonnet [14]; rate 0.125 kg/ha): 4.7
Postemergence herbicidal rating AMBEL (AMBEL Ragweed, Common [15]; 0.008 kg/ha): 5.0
Postemergence herbicidal rating AMBEL (AMBEL Ragweed, Common [15]; 0.016 kg/ha): 6.0
Postemergence herbicidal rating AMBEL (AMBEL Ragweed, Common [15]; 0.032 kg/ha): 8.0
Postemergence herbicidal rating AMBEL (AMBEL Ragweed, Common [15]; 0.062 kg/ha): 9.0
Postemergence herbicidal rating CHEAL ([16]; 0.008 kg/ha): 9.0
Postemergence herbicidal rating CHEAL ([16]; 0.016 kg/ha): 6.0
Postemergence herbicidal rating CHEAL ([16]; 0.032 kg/ha): 7.0
Postemergence herbicidal rating CHEAL ([16]; 0.062 kg/ha): 9.0
ZEAMX herbicidal rating (ZEAMX Corn, Field [17]; rate 0.016 kg/ha): 1.0
ZEAMX herbicidal rating (ZEAMX Corn, Field [17]; rate 0.032 kg/ha): 3.7
ZEAMX herbicidal rating (ZEAMX Corn, Field [17]; rate 0.062 kg/ha): 4.0
ZEAMX herbicidal rating (ZEAMX Corn, Field [17]; rate 0.125 kg/ha): 6.7
GALAP herbicidal rating (GALAP Galium [18]; rate 0.016 kg/ha): 0.0
GALAP herbicidal rating (GALAP Galium [18]; rate 0.032 kg/ha): 0.0
GALAP herbicidal rating (GALAP Galium [18]; rate 0.062 kg/ha): 1.0
GALAP herbicidal rating (GALAP Galium [18]; rate 0.125 kg/ha): 1.0
TRZAWR herbicidal rating [19]: 3.0
Postemergence herbicidal rating CASOB (CASOB Sicklepod [20]; 0.008 kg/ha): 1.0
Postemergence herbicidal rating CASOB (CASOB Sicklepod [20]; 0.016 kg/ha): 3.0
Postemergence herbicidal rating CASOB (CASOB Sicklepod [20]; 0.032 kg/ha): 5.0
Postemergence herbicidal rating CASOB (CASOB Sicklepod [20]; 0.062 kg/ha): 6.0
Postemergence herbicidal rating ECHCG (ECHOG Barnyardgrass [21]; 0.008 kg/ha): 0.0
Postemergence herbicidal rating ECHCG (ECHOG Barnyardgrass [21]; 0.016 kg/ha): 0.0
Postemergence herbicidal rating ECHCG (ECHOG Barnyardgrass [21]; 0.032 kg/ha): 1.0
Postemergence herbicidal rating ECHCG (ECHOG Barnyardgrass [21]; 0.062 kg/ha): 5.0
Postemergence herbicidal rating ORYSAT (ORYSAT Rice, Tebonnet [22]; 0.008 kg/ha): 3.0
Postemergence herbicidal rating ORYSAT (ORYSAT Rice, Tebonnet [22]; 0.016 kg/ha): 3.0
Postemergence herbicidal rating ORYSAT (ORYSAT Rice, Tebonnet [22]; 0.032 kg/ha): 3.5
Postemergence herbicidal rating ORYSAT (ORYSAT Rice, Tebonnet [22]; 0.062 kg/ha): 4.0
CASOB herbicidal rating (CASOB Sicklepod [23]; rate 0.016 kg/ha): 0.0
CASOB herbicidal rating (CASOB Sicklepod [23]; rate 0.032 kg/ha): 1.3
CASOB herbicidal rating (CASOB Sicklepod [23]; rate 0.062 kg/ha): 3.3
CASOB herbicidal rating (CASOB Sicklepod [23]; rate 0.125 kg/ha): 2.3
ABUTH herbicidal rating (ABUTH Velvetleaf [24]; rate 0.016 kg/ha): 9.0
ABUTH herbicidal rating (ABUTH Velvetleaf [24]; rate 0.032 kg/ha): 7.0
ABUTH herbicidal rating (ABUTH Velvetleaf [24]; rate 0.062 kg/ha): 9.0
ABUTH herbicidal rating (ABUTH Velvetleaf [24]; rate 0.125 kg/ha): 9.0
